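These data come from cells grown in 96-well plates and exposed to compound for 48 hours at five concentrations. At the GI50, growth is halved. TGI is the concentration that stops growth completely.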
Key:
Experiment in all cases: DTP human tumour cell line panel, 48 h
[1] = tested on: A498 renal
[2] = tested on: A549 NSCLC
[3] = tested on: EKVX NSCLC
[4] = tested on: M14 melanoma
[5] = tested on: MOLT-4 leukemia
[6] = tested on: NCI-H226 lung
[7] = tested on: UACC-257 melanoma
[8] = tested on: MDA-MB-435
[9] = tested on: PC-3 prostate
[10] = tested on: T-47D breast

Structure (SMILES)	TGI [1] [µM]	TGI [2] [µM]	TGI [3] [µM]	TGI [4] [µM]	TGI [5] [µM]	TGI [6] [µM]	TGI [7] [µM]	GI50 [1] [µM]	GI50 [2] [µM]	GI50 [3] [µM]	GI50 [4] [µM]	GI50 [8] [µM]	TGI [8] [µM]	GI50 [5] [µM]	GI50 [6] [µM]	GI50 [9] [µM]	TGI [9] [µM]	GI50 [7] [µM]	GI50 [10] [µM]	TGI [10] [µM]
CN(C)CCNC(=O)c1c2ccccc2cc2ccccc12	> 100	> 100	> 100	30.7	45	48.5	34.4	–	–	–	–	–	–	–	–	–	–	–	–	–
Cc1cccc(C(C)C)c1NC(=O)CCl	> 100	> 100	53.2	> 100	> 100	> 100	> 100	–	–	–	–	–	–	–	–	–	–	–	–	–
CCSc1ccc([C@@H]2[C@@H](N)C(=O)N2c2cc(OC)c(OC)c(OC)c2)cc1	8.29	> 100	> 100	> 100	> 100	> 100	> 100	0.0563	0.108	0.638	0.0456	0.0277	0.102	0.0528	79	0.0773	> 100	> 100	–	–
CCOC(=O)C(=O)Nc1ccccc1OCC	–	> 100	> 100	> 100	> 100	> 100	> 100	–	–	–	–	–	–	–	–	–	–	–	–	–
CCOC(OCC)C(CC)[Se]c1ccccc1 (stereo not drawn)	> 100	> 100	> 100	93.7	> 100	> 100	> 100	–	–	–	–	–	–	–	–	–	–	–	–	–
O=C(O)c1cn(C2CC2)c2cc(N3CCNCC3)c(F)cc2c1=O	–	> 100	–	> 100	–	> 100	> 100	–	> 100	–	> 100	> 100	> 100	–	> 100	> 100	> 100	> 100	70	> 100
Nc1c(C(=O)NC23CC4CC(CC(C4)C2)C3)[n+]([O-])c2ccccc2[n+]1[O-]	> 100	> 100	> 100	> 100	> 100	> 100	> 100	–	–	–	–	–	–	–	–	–	–	–	–	–
O=S1c2ccccc2NC(c2ccc3ccccc3c2)CC1c1ccccc1 (stereo not drawn)	–	> 100	63.9	> 100	70.3	48.9	> 100	–	–	–	–	–	–	–	–	–	–	–	–	–
CN1C(=O)CCC1c1ccc2c(c1)oc(=O)n2C (stereo not drawn)	–	> 100	> 100	> 100	> 100	> 100	> 100	–	–	–	–	–	–	–	–	–	–	–	–	–
CNc1ccc([N+](=O)[O-])c2c(NCCCN(C)C)ccnc12	–	> 100	> 100	> 100	> 100	> 100	> 100	–	–	–	–	–	–	–	–	–	–	–	–	–
CCOc1ccc(NCC2CC/C(=C\c3ccc(Cl)cc3)C2=O)cc1 (stereo not drawn)	> 95.9	> 100	> 73.8	50.6	69.8	> 100	> 56.1	–	–	–	–	–	–	–	–	–	–	–	–	–
COc1ccc(OC(C)C(=O)O)c2c1CCCC2=O (stereo not drawn)	> 100	> 100	> 100	> 100	> 100	> 100	> 100	–	–	–	–	–	–	–	–	–	–	–	–	–
O=c1ccn(C2(CO)C=C(CO)C(O)C2O)c(=O)[nH]1 (stereo not drawn)	> 25.7	> 25.7	> 25.7	> 25.7	> 25.7	> 25.7	> 25.7	–	–	–	–	–	–	–	–	–	–	–	–	–
COc1ccccc1NC(=O)C1=C(C)NC(C)=C(C(=O)Nc2ccccc2OC)C1c1cccc2ccccc12	> 100	> 100	> 100	> 100	> 100	> 100	> 100	–	–	–	–	–	–	–	–	–	–	–	–	–
COc1ccc(-n2cc(-c3cc(OC)c(OC)c(OC)c3)[nH]c2=S)cc1Cl	–	> 100	> 100	–	> 100	> 100	> 100	–	65.5	37.3	–	> 100	> 100	> 100	27.1	54.6	> 100	> 100	29	> 100
CCOC(=O)c1ccccc1SC(C[N+](=O)[O-])c1ccccc1 (stereo not drawn)	16	21.6	–	4.43	30.6	44.5	–	3.63	5.18	–	2.01	2.91	11.4	4.54	16.1	4.4	16.6	–	5.32	42.6
OCC(O)COc1c(Cl)cc(Cl)cc1Cl (stereo not drawn)	> 100	> 100	> 100	> 100	> 31.6	> 100	> 100	–	–	–	–	–	–	–	–	–	–	–	–	–
ClC1c2ccccc2C2(c3ccccc3)OOC1(c1ccccc1)O2 (stereo not drawn)	4.45	3.64	4.62	2.76	3.56	4.08	3.65	–	–	–	–	–	–	–	–	–	–	–	–	–
CN(C(=O)C12C3C4C1C1C2C3C41C(O)C(C)(C)C)C(C)(C)C (stereo not drawn)	> 100	> 100	> 100	> 100	> 100	> 100	> 100	–	–	–	–	–	–	–	–	–	–	–	–	–

Structure (SMILES)	TGI [1] [µM]	TGI [2] [µM]	TGI [3] [µM]	TGI [4] [µM]	TGI [5] [µM]	TGI [6] [µM]	TGI [7] [µM]	GI50 [1] [µM]	GI50 [2] [µM]	GI50 [3] [µM]	GI50 [4] [µM]	GI50 [8] [µM]	TGI [8] [µM]	GI50 [5] [µM]	GI50 [6] [µM]	GI50 [9] [µM]	TGI [9] [µM]	GI50 [7] [µM]	GI50 [10] [µM]	TGI [10] [µM]
NC(CCc1ncc(-c2ccccc2)s1)C(=O)O (stereo not drawn)	> 100	> 100	> 100	> 100	> 100	> 100	> 100	–	–	–	–	–	–	–	–	–	–	–	–	–
Oc1ccc2ccccc2c1N=Nc1ccc(Cl)cc1	–	> 100	> 100	> 100	> 100	> 100	> 100	–	–	–	–	–	> 100	–	–	–	> 100	–	–	> 100
O=C1CCCC(O)=C1SC1=C(O)CCCC1=O	> 100	> 100	> 100	> 100	> 100	> 100	> 100	–	–	–	–	–	–	–	–	–	–	–	–	–
CCCC(C)c1c(Cl)nc(Cl)nc1Cl (stereo not drawn)	–	29.4	36.9	3.92	> 100	18.7	26.2	–	–	–	–	–	21	–	–	–	46	–	–	29
CC(O)C(NC(=O)c1ccccc1)C(=O)N(Cc1ccccc1)Cc1ccccc1 (stereo not drawn)	> 100	> 100	> 100	> 100	> 100	> 100	> 100	–	–	–	–	–	–	–	–	–	–	–	–	–
Cc1cc(NCc2cc(Nc3ccnc4cc(Cl)ccc34)ccc2F)nc(N2CCSCC2)n1	10.4	21.8	83.9	–	7.07	12.1	–	2.18	2.92	2.8	–	–	–	2.12	2.71	1.5	4.35	–	1.97	4.71
CCCC(=O)c1ccc(=O)n(C)c1	–	> 100	> 100	> 100	> 100	> 100	–	–	–	–	–	–	–	–	–	–	–	–	–	–
O=C1CCNC(=O)NC1	> 100	> 100	> 100	> 100	56.6	> 100	> 100	–	–	–	–	–	–	–	–	–	–	–	–	–
COc1cc(C(=O)O/N=C(\N)Cc2cccc3ccccc23)cc(OC)c1OC	60.7	23.8	–	–	29.4	42.5	29.2	5.79	7.67	–	–	2.4	6.42	4.53	16.9	6.02	20.6	15.2	2.95	12.5
Fc1ccc([C@@H]2CCNC[C@H]2COc2ccc3c(c2)OCO3)cc1	19.2	29	–	11.1	–	29.9	24.6	5.52	14.6	–	2.93	2.31	7.96	–	13.7	3.83	17.2	11.2	5.53	20.4
O=C1CC(c2ccsc2)c2snc(-c3ccc(Cl)cc3)c2N1 (stereo not drawn)	7.94	> 100	–	> 100	–	> 100	> 100	1.09	0.626	–	0.804	0.26	0.977	–	7.55	2.05	> 100	4.08	0.537	> 100
N#Cc1cc([N+](=O)[O-])ccc1NC(=O)C(=O)C(C(=O)c1ccc2ccccc2c1)C1OCc2ccccc21 (stereo not drawn)	20.6	> 89	37.4	30.1	21.8	4.46	28.2	–	–	–	–	–	–	–	–	–	–	–	–	–
c1ccc2c(c1)Sc1ccccc1N2C1CN2CCC1CC2 (stereo not drawn)	22.5	32.1	27.7	–	28.1	18.9	31.8	–	–	–	–	–	–	–	–	–	–	–	–	–
CC(=O)OCCOCNC(=S)N/N=C(\C)c1cccs1	> 100	> 100	> 100	> 100	> 100	> 100	> 100	–	–	–	–	–	–	–	–	–	–	–	–	–
CC(C)CN1CC(C)C(=O)NC1=O (stereo not drawn)	> 100	> 100	> 100	–	> 100	> 100	> 100	–	–	–	–	–	–	–	–	–	–	–	–	–
O=C(Oc1ccc2c(-c3ccccc3)c(C(=O)Nc3ccc(Cl)cc3)c(=O)oc2c1)c1ccccc1	–	> 100	> 100	> 100	> 100	> 100	> 100	–	–	–	–	–	–	–	–	–	–	–	–	–
C[N+](C)(C)CC(CC(=O)[O-])C1CC1 (stereo not drawn)	> 100	> 100	> 100	> 100	> 100	–	> 100	–	–	–	–	–	–	–	–	–	–	–	–	–
C=C1CCC2C(C)(CO)C(O)CCC2(C)C1C/C=C1/CCOC1=O (stereo not drawn)	> 100	> 100	> 100	> 100	> 100	> 100	> 100	–	–	–	–	–	–	–	–	–	–	–	–	–

— PubChem BioAssay (NCI)
